These compounds were tested against human TLR7 (Homo sapiens (Human), UniProt Q9NYK1) (assay: Reporter Gene Assay (HEK293 stably transfected with human TLR7 and NF-kB-driven luciferase reporter)). Settings: HEK293 cells stably transfected with human TLR7 and pNifty-Luciferase; 7 hours incubation; EC50 relative to the activity of resiquimod set to 100%.
Format: cell-based
Protocol: As a control assay, normal Hek293 transfected with pNifty-Luc were used. […] Bright-Glo™ Luciferase assay buffer and substrate were supplied by Promega #E263B and #E264B (assay substrate and buffer respectively). 384 well clear-bottom plates were supplied by Greiner bio-one (#789163-G) and were custom bar-coded plates.
Cells were plated at 25,000 cells/well in 384-well plates in a final volume of 50 μl of media. Cells were allowed to adhere to the plates after overnight (18 hours) culture at 37° C. and 5% CO2. Serially diluted experimental and positive control compounds were then dispensed to each well and incubated for 7 hours at 37° C. and 5% CO2. Cells stimulated with DMSO alone also serve as negative controls. After the incubation, 30 μl of the pre-mix assay buffer and substrate buffer were added to each well according to manufacturer's instructions. The luminescence signal was read on a CLIPR machine with an integration time of 20 seconds per plate.

human TLR7, sequence (Q9NYK1 27-1049): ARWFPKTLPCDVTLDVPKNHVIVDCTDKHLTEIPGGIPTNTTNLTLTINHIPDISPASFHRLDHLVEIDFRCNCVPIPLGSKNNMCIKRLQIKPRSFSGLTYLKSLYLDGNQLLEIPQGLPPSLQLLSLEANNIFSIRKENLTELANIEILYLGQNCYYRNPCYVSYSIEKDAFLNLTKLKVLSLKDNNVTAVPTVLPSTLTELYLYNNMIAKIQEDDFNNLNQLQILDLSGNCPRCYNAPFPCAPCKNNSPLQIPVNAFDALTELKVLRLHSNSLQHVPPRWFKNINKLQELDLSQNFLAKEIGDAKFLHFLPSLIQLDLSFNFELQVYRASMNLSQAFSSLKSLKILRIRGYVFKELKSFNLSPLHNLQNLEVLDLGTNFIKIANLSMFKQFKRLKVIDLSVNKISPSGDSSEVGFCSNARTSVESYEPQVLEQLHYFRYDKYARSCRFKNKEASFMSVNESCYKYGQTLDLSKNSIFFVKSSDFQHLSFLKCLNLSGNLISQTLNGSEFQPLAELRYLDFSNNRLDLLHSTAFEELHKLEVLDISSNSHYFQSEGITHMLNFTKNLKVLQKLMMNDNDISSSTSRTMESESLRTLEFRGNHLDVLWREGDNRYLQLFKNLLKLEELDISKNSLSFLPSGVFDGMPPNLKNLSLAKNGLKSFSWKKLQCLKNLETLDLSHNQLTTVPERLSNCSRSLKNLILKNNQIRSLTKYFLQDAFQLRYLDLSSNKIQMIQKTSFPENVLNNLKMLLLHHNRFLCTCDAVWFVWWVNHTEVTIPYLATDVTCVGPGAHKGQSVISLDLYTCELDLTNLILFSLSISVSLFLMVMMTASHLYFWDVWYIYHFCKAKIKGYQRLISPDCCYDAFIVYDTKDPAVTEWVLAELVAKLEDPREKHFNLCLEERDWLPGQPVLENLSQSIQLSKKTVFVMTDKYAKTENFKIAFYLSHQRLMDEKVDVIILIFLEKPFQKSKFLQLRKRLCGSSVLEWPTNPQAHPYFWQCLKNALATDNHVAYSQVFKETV

Row | SMILES | EC50 [µM]
1 | CCCCCNc1nc(N)nc2ccn(Cc3ccc(C(=O)OC)cc3OC)c12 [Example 1, methyl 4-((2-amino-4-(pentylamino)-5H-pyrrolo[3,2-d]pyrimidin-5-yl)methyl)-3-methoxybenzoate] | 0.01
2 | CCCCCNc1nc(N)nc2ccn(Cc3ccc(C(=O)OCCN(C)C)cc3OC)c12 [Example 2, 2-(dimethylamino)ethyl 4-((2-amino-4-(pentylamino)-5H-pyrrolo[3,2-d]pyrimidin-5-yl)methyl)-3-methoxybenzoate] | < 0.005
3 | CCCCCNc1nc(N)nc2ccn(Cc3ccc(C(=O)OCCOCCN(C)C)cc3OC)c12 [Example 3, 2-(2-(dimethylamino)ethoxy)ethyl 4-((2-amino-4-(pentylamino)-5H-pyrrolo[3,2-d]pyrimidin-5-yl)methyl)-3-methoxybenzoate] | 0.02
4 | CCCCCNc1nc(N)nc2ccn(Cc3cc(C(=O)OC)ccc3OC)c12 [Example 4, methyl 3-((2-amino-4-(pentylamino)-5H-pyrrolo[3,2-d]pyrimidin-5-yl)methyl)-4-methoxybenzoate] | < 0.005
5 | CCCCCNc1nc(N)nc2ccn(Cc3cc(CC(=O)OC)ccc3OC)c12 [Example 5, methyl 2-(3-((2-amino-4-(pentylamino)-5H-pyrrolo[3,2-d]pyrimidin-5-yl)methyl)-4-methoxyphenyl)acetate] | 0.01
6 | CCCCCNc1nc(N)nc2ccn(Cc3cc(CCC(=O)OCC)ccc3OC)c12 [Example 6, ethyl 3-(3-((2-amino-4-(pentylamino)-5H-pyrrolo[3,2-d]pyrimidin-5-yl)methyl)-4-methoxyphenyl)propanoate] | 0.03
7 | CCCCCNc1nc(N)nc2ccn(Cc3cc(OCC(=O)OCC(=O)N4CCOCC4)ccc3OC)c12 [Example 8, 2-morpholino-2-oxoethyl 2-(3-((2-amino-4-(pentylamino)-5H-pyrrolo[3,2-d]pyrimidin-5-yl)methyl)-4-methoxyphenoxy)acetate] | 0.04
8 | CCCCCNc1nc(N)nc2ccn(Cc3cc(CC(=O)OCC(=O)N4CCOCC4)ccc3OC)c12 [Example 9, 2-morpholino-2-oxoethyl 2-(3-((2-amino-4-(pentylamino)-5H-pyrrolo[3,2-d]pyrimidin-5-yl)methyl)-4-methoxyphenyl)acetate] | 0.01
9 | CCCCCNc1nc(N)nc2ccn(Cc3ccc(CC(=O)OCC(=O)N4CCOCC4)cc3OC)c12 [Example 10, 2-morpholino-2-oxoethyl 2-(4-((2-amino-4-(pentylamino)-5H-pyrrolo[3,2-d]pyrimidin-5-yl)methyl)-3-methoxyphenyl)acetate] | 0.006
10 | CCCCCNc1nc(N)nc2ccn(Cc3ccc(CCC(=O)OCC(=O)N4CCOCC4)cc3OC)c12 [Example 11, 2-(morpholin-4-yl)-2-oxoethyl 3-(4-{[2-amino-4-(pentylamino)-5H-pyrrolo[3,2-d]pyrimidin-5-yl]methyl}-3-methoxyphenyl)propanoate] | 0.02
11 | CCCC[C@@H](CO)Nc1nc(N)nc2ccn(Cc3cc(CCC(=O)OCC(=O)N4CCOCC4)ccc3OC)c12 [Example 12, (S)-2-morpholino-2-oxoethyl 3-(3-((2-amino-4-((1-hydroxyhexan-2-yl)amino)-5H-pyrrolo[3,2-d]pyrimidin-5-yl)methyl)-4-methoxyphenyl)propanoate] | 0.03
12 | CCCC[C@@H](CO)Nc1nc(N)nc2ccn(Cc3ccc(CC(=O)OCC(=O)N4CCOCC4)cc3OC)c12 [Example 13, (S)-2-morpholino-2-oxoethyl 2-(4-((2-amino-4-((1-hydroxyhexan-2-yl)amino)-5H-pyrrolo[3,2-d]pyrimidin-5-yl)methyl)-3-methoxyphenyl)acetate] | 0.01
13 | CCCC[C@@H](CO)Nc1nc(N)nc2ccn(Cc3cc(CC(=O)OCC(=O)N4CCOCC4)ccc3OC)c12 [Example 14, (S)-2-morpholino-2-oxoethyl 2-(3-((2-amino-4-((1-hydroxyhexan-2-yl)amino)-5H-pyrrolo[3,2-d]pyrimidin-5-yl)methyl)-4-methoxyphenyl)acetate] | 0.01
14 | CCCC[C@@H](CO)Nc1nc(N)nc2ccn(Cc3ccc(CCC(=O)OCC(=O)N4CCOCC4)cc3OC)c12 [Example 15, (S)-2-morpholino-2-oxoethyl 3-(4-((2-amino-4-((1-hydroxyhexan-2-yl)amino)-5H-pyrrolo[3,2-d]pyrimidin-5-yl)methyl)-3-methoxyphenyl)propanoate] | 0.02
15 | CCCCCNc1nc(N)nc2ccn(Cc3cc(/C=C/C(=O)OCC(=O)N4CCOCC4)ccc3OC)c12 [Example 16, 2-(morpholin-4-yl)-2-oxoethyl (2E)-3-(3-{[2-amino-4-(pentylamino)-5H-pyrrolo[3,2-d]pyrimidin-5-yl]methyl}-4-methoxyphenyl)prop-2-enoate] | < 0.005
16 | CCCCCNc1nc(N)nc2ccn(Cc3cc(CCC(=O)OCC(=O)N4CCOCC4)ccc3OC)c12 [Example 17, 2-(morpholin-4-yl)-2-oxoethyl 3-(3-{[2-amino-4-(pentylamino)-5H-pyrrolo[3,2-d]pyrimidin-5-yl]methyl}-4-methoxyphenyl)propanoate] | 0.05

Row | SMILES | EC50 [µM]
17 | CCCCCNc1nc(N)nc2ccn(Cc3ccc(CC(=O)OCC(=O)OCc4ccccc4)cc3OC)c12 [Example 18, 2-(benzyloxy)-2-oxoethyl 2-(4-{[2-amino-4-(pentylamino)-5H-pyrrolo[3,2-d]pyrimidin-5-yl]methyl}-3-methoxyphenyl)acetate] | 0.2
18 | CCCCCNc1nc(N)nc2ccn(Cc3ccc(CC(=O)OCC(=O)N(CCC)CCC)cc3OC)c12 [Example 19, 2-(dipropylcarbamoyl)methyl 2-(4-{[2-amino-4-(pentylamino)-5H-pyrrolo[3,2-d]pyrimidin-5-yl]methyl}-3-methoxyphenyl)acetate] | 0.2
19 | CCCCCNc1nc(N)nc2ccn(Cc3ccc(CC(=O)OCC(=O)N(C)C)cc3OC)c12 [Example 20, 2-(dimethylamino)-2-oxoethyl 2-(4-((2-amino-4-(pentylamino)-5H-pyrrolo[3,2-d]pyrimidin-5-yl)methyl)-3-methoxyphenyl)acetate] | 0.08
20 | CCCCCNc1nc(N)nc2ccn(Cc3ccc(CC(=O)OCCN4CCN(C)CC4)cc3OC)c12 [Example 21, 2-(4-methylpiperazin-1-yl)ethyl 2-(4-{[2-amino-4-(pentylamino)-5H-pyrrolo[3,2-d]pyrimidin-5-yl]methyl}-3-methoxyphenyl)acetate] | < 0.005
21 | CCCCCNc1nc(N)nc2ccn(Cc3ccc(CC(=O)OCCO)cc3OC)c12 [Example 22, 2-hydroxyethyl 2-(4-{[2-amino-4-(pentylamino)-5H-pyrrolo[3,2-d]pyrimidin-5-yl]methyl}-3-methoxyphenyl)acetate] | < 0.006
22 | CCCCCNc1nc(N)nc2ccn(Cc3ccc(CC(=O)OCCCCN(C)C)cc3OC)c12 [Example 23, 4-(dimethylamino)butyl 2-(4-{[2-amino-4-(pentylamino)-5H-pyrrolo[3,2-d]pyrimidin-5-yl]methyl}-3-methoxyphenyl)acetate] | 0.007
23 | CCCCCNc1nc(N)nc2ccn(Cc3ccc(CC(=O)OCCN4CCOCC4)cc3OC)c12 [Example 24, 2-(morpholin-4-yl)ethyl 2-(4-{[2-amino-4-(pentylamino)-5H-pyrrolo[3,2-d]pyrimidin-5-yl]methyl}-3-methoxyphenyl)acetate] | 0.008
24 | CCCCCNc1nc(N)nc2ccn(Cc3ccc(CC(=O)OCCN4CCNCC4)cc3OC)c12 [Example 25, 2-(piperazin-1-yl)ethyl 2-(4-{[2-amino-4-(pentylamino)-5H-pyrrolo[3,2-d]pyrimidin-5-yl]methyl}-3-methoxyphenyl)acetate] | 0.03
25 | CCCCCNc1nc(N)nc2ccn(Cc3cc(OCC(=O)OCCN(C)C)ccc3OC)c12 [Example 26, 2-(dimethylamino)ethyl 2-(3-{[2-amino-4-(pentylamino)-5H-pyrrolo[3,2-d]pyrimidin-5-yl]methyl}-4-methoxyphenoxy)acetate] | 0.3
26 | CCCCCNc1nc(N)nc2ccn(Cc3cc(OCC(=O)OCCN4CCNCC4)ccc3OC)c12 [Example 27, 2-(piperazin-1-yl)ethyl 2-(3-{[2-amino-4-(pentylamino)-5H-pyrrolo[3,2-d]pyrimidin-5-yl]methyl}-4-methoxyphenoxy)acetate] | 0.5
27 | CCCCCNc1nc(N)nc2ccn(Cc3cc(OCC(=O)OCCN4CCOCC4)ccc3OC)c12 [Example 28, 2-(morpholin-4-yl)ethyl 2-(3-{[2-amino-4-(pentylamino)-5H-pyrrolo[3,2-d]pyrimidin-5-yl]methyl}-4-methoxyphenoxy)acetate] | 0.4
28 | CCCCCNc1nc(N)nc2ccn(Cc3cc(OCC(=O)OCCN4CCN(C)CC4)ccc3OC)c12 [Example 29, 2-(4-methylpiperazin-1-yl)ethyl 2-(3-{[2-amino-4-(pentylamino)-5H-pyrrolo[3,2-d]pyrimidin-5-yl]methyl}-4-methoxyphenoxy)acetate] | 0.2
29 | CCCC[C@@H](CO)Nc1nc(N)nc2ccn(Cc3cc(CN4CCNCC4)ccc3OC)c12 [Example 30, (S)-2-((2-amino-5-(2-methoxy-5-(piperazin-1-ylmethyl)benzyl)-5H-pyrrolo[3,2-d]pyrimidin-4-yl)amino)hexan-1-ol] | 0.08
30 | CCCCCNc1nc(N)nc2ccn(Cc3cc(CN4CCNCC4)ccc3OC)c12 [Example 31, 5-(2-methoxy-5-(piperazin-1-ylmethyl)benzyl)-N4-pentyl-5H-pyrrolo[3,2-d]pyrimidine-2,4-diamine] | 0.02
31 | CCCCCNc1nc(N)nc2ccn(Cc3ccc(CN4CCNCC4)cc3OC)c12 [Example 32, 5-(2-methoxy-4-(piperazin-1-ylmethyl)benzyl)-N4-pentyl-5H-pyrrolo[3,2-d]pyrimidine-2,4-diamine] | < 0.005
